Data taken from patent US10315994B2, “Photostable compounds, absorbing compounds and uses thereof” (Commonwealth Scientific and Industrial Research Organisation, priority 2015, dated 2019).
“Also recorded” adds a separate entry of the source. Blank lines part the entries; values can stand above or below the compound they belong to.

Tests used:
Format in all cases: physicochemical
[1] = Photostability of thin films exposed to xenon arc lamp; conditions: for % λmax (% of original absorbance remaining): absorbance at λmax, irradiated vs unirradiated; for % λmax (% of original absorbance remaining) / % abs total (% of original absorbance remaining): xenon arc lamp 1 hour, thin film; for % abs total (% of original absorbance remaining): sum of absorbance 290-400 nm
Procedure: 1 mL of a 3% solution of the test compound (30 mg of test compound in 1 mL solvent) was prepared in a solvent mix made up of 50% EtOH and 25% capric/caprylic triglyceride and 25% C12-C15 alkyl benzoate. 50 μL of this solution (containing 1.5 mg of test compound) was added carefully to the centre of a glass microscope slide and the volatile components left to evaporate in the dark for at least 3 hours to give a liquid film. […] The irradiation was performed in a fume cupboard where the air flow was sufficient to keep sample T<30° C. One hour's exposure represented a calculated radiation dose (using meter) of approximately 100 MED.
In order to calculate the photostability of the test compounds, the exposed slides were placed in a beaker and rinsed with 2×5 mL EtOH, 1×5 mL MeOH. The combined washings were then added to a 100 mL volumetric flask and made up to 100 mL total volume with methanol. The UV absorbance was then measured in a 10 mm cuvette. The percent stability is measured as the ratio of absorbance at λmax for the irradiated sample compared to the unirradiated sample. As a further measure, a comparison of the sum of the absorbance in the 290-400 nm range was calculated.
The thin films are a good surrogate for testing the stability of a candidate in a sunscreen formulation as they use cosmetic emollients as solvent and are formed at cosmetically relevant concentrations.

[2] = UV/visible absorbance characteristics (λmax, λcrit, ε, E 1%,1 cm); conditions: for ε: in M-1 cm-1 (unit assumed); for Peak point of absorbance curve (figure legend): unirradiated control, FIGS. 3-5
[3] = Solubility in sunscreen formulation / 3% solution in EtOH:capric/caprylic triglyceride:C12-C15 alkyl benzoate; conditions: e.g. 3% solution in 2:1:1 EtOH:capric/caprylic triglyceride:C12-C15 alkyl benzoate
Procedure: In one embodiment, the compounds may provide for improved solubility or stability in standard compositions, including sunscreen compositions. […] Such solubility may be measured by generating, for example, a 3% solution of the relevant compound in 2:1:1 EtOH:capric/caprylic triglyceride:C12-C15 alkyl benzoate.
1 mL of a 3% solution of the test compound (30 mg of test compound in 1 mL solvent) was prepared in a solvent mix made up of 50% EtOH and 25% capric/caprylic triglyceride and 25% C12-C15 alkyl benzoate. 50 μL of this solution (containing 1.5 mg of test compound) was added carefully to the centre of a glass microscope slide and the volatile components left to evaporate in the dark for at least 3 hours to give a liquid film. The prepared films were then exposed for 1 hour to an Eimac 150 W xenon arc lamp filtered through Pyrex (15 Amp supply current, samples 19 cm from the lamp) previously allowed to warm up for 15 minutes prior to sample exposure. The irradiation was performed in a fume cupboard where the air flow was sufficient to keep sample T<30° C. One hour's exposure represented a calculated radiation dose (using meter) of approximately 100 MED.

Photostability (%) ([1]; Table 5): <5%
Compound: CC(C)(C)CC(C)(C)N1C=C(C(=O)/C=C/c2ccc(/C=C/C(=O)C3=CN(C(C)(C)CC(C)(C)C)CCC3(C)C)cc2)C(C)(C)CC1

Photostability (%) ([1]; Table 5): 100%
E (1%, 1 cm) ([2]; Table 5): 1094
λcrit ([2]; Table 5): 364 nm
λmax ([2]; Table 5): 340 nm
ε ([2]; Table 5): 56720
Compound: COc1ccc(N2C=C(C(=O)C(F)(F)F)C(C)(C)CC2)cc1N1C=C(C(=O)C(F)(F)F)C(C)(C)CC1

Photostability (%) ([1]; Table 5): 43%
E (1%, 1 cm) ([2]; Table 5): 1371
λcrit ([2]; Table 5): 331 nm
λmax ([2]; Table 5): 313 nm
ε ([2]; Table 5): 30868
Compound: CC1(C)CCN(C(C)(C)C)C=C1C(=O)C(F)F

Photostability (%) ([1]; Table 5): 49%
E (1%, 1 cm) ([2]; Table 5): 1285
λcrit ([2]; Table 5): 331 nm
λmax ([2]; Table 5): 314 nm
ε ([2]; Table 5): 33288
Compound: CC(F)(F)C(=O)C1=CN(C(C)(C)C)CCC1(C)C

Photostability (%) ([1]; Table 5): 30%
E (1%, 1 cm) ([2]; Table 5): 1655
λcrit ([2]; Table 5): 326 nm
λmax ([2]; Table 5): 310 nm
ε ([2]; Table 5): 37586
Compound: CC1(C)CCN(C(C)(C)C)C=C1C(=O)CF

% λmax (% of original absorbance remaining) [1]: 45%
Photostability, % remaining after irradiation ([1]; exposure to the lamp for 1 h): over 40%
% abs total (% of original absorbance remaining) [1]: 47%
Compound: CCCCCCCC(=O)C1=CN(C(C)(C)C)CCC1(C)C [319, 2]

% λmax (% of original absorbance remaining) [1]: 21%
Photostability, % remaining after irradiation ([1]; exposure to the lamp for 1 h): 21%
% abs total (% of original absorbance remaining) [1]: 24%
Compound: CCC(=O)C1=CN(CC(C)C)CCC1(C)C [Compound 1]

Photostability (%) ([1]; Table 7, benzoyl derivatives): 59%
% λmax (% of original absorbance remaining) [1]: 59%
Photostability, % remaining after irradiation ([1]; exposure to the lamp for 1 h): 59%
% abs total (% of original absorbance remaining) [1]: 63%
Compound: CC(C)CN1C=C(C(=O)c2ccccc2)C(C)(C)CC1 [Compound 11]

% λmax (% of original absorbance remaining) [1]: 35%
% abs total (% of original absorbance remaining) [1]: 37%
Compound: CC(C)CN1C=C(C(=O)C(c2ccccc2)c2ccccc2)C(C)(C)CC1 [Compound 16]

% λmax (% of original absorbance remaining) [1]: 30%
% abs total (% of original absorbance remaining) [1]: 31%
Compound: CCC(=O)C1=CN(c2ccccc2)CCC1(C)C [Compound 23]

% λmax (% of original absorbance remaining) [1]: 56%
Photostability, % remaining after irradiation ([1]; exposure to the lamp for 1 h): 56%
% abs total (% of original absorbance remaining) [1]: 56%
Compound: Br.CCC(=O)C1=CN(CC(C)C)CCC1(C)C [Compound 44]

Photostability (%) ([1]; Table 6): 63%
% λmax (% of original absorbance remaining) [1]: 63%
% abs total (% of original absorbance remaining) [1]: 61%
E (1%, 1 cm) ([2]; Table 6): 1197
ε ([2]; Table 6): 59850
Peak point of absorbance curve (figure legend) [2]: approximately 310 nm
Compound: CC1(C)CCN(C(C)(C)C)C=C1C(=O)CCCCCCCCC(=O)C1=CN(C(C)(C)C)CCC1(C)C [Compound 54]

Photostability (%) ([1]; Table 7, benzoyl derivatives): 78%
Compound: CC1(C)CCN(C(C)(C)C)C=C1C(=O)c1ccncc1 [Compound 58]

% λmax (% of original absorbance remaining) [1]: 9%
% abs total (% of original absorbance remaining) [1]: 14%
Compound: CN(C(=O)C1=CN(C(C)(C)C)CCC1(C)C)c1ccccc1 [Compound 70]

Photostability (%) ([1]; Table 7, benzoyl derivatives): 85%
Compound: CC1(C)CCN(C(C)(C)C)C=C1C(=O)c1ccc(Br)cc1 [Compound 76]

Photostability (%) ([1]; Table 7, benzoyl derivatives): 30%
Photostability, % remaining after irradiation ([1]; exposure to the lamp for 1 h): 30%
Compound: CN(C)c1ccc(C(=O)C2=CN(C(C)(C)C)CCC2(C)C)cc1 [Compound 86]

Photostability (%) ([1]; Table 7, benzoyl derivatives): 38%
Compound: CC(C)(C)Oc1ccc(C(=O)C2=CN(C(C)(C)C)CCC2(C)C)cc1 [Compound 88]

% λmax (% of original absorbance remaining) [1]: 11%
Photostability, % remaining after irradiation ([1]; exposure to the lamp for 1 h): less than 20%
% abs total (% of original absorbance remaining) [1]: 21%
Compound: CC1(C)CCN(C(C)(C)C)C=C1C(=O)CC(=O)c1ccccc1 [Compound 94]
Colour change on exposure to irradiation ([1]; film): goes from bright yellow to colourless; also recorded: became perfectly colourless

Photostability (%) ([1]; Table 6): 89%
% λmax (% of original absorbance remaining) [1]: 88%
Photostability, % remaining after irradiation ([1]; exposure to the lamp for 1 h): 88%
% abs total (% of original absorbance remaining) [1]: 84%
E (1%, 1 cm) ([2]; Table 1): 1380
λcrit ([2]; Table 1): 331 nm
λmax ([2]; Table 1): 315 nm
ε ([2]; Table 1): 36298
E (1%, 1 cm) ([2]; Table 6): 1380
λcrit ([2]; Table 6): 331 nm
λmax ([2]; Table 6): 315 nm
ε ([2]; Table 6): 36298
Peak point of absorbance curve (figure legend) [2]: approximately 320 nm
Compound: CC1(C)CCN(C(C)(C)C)C=C1C(=O)C(F)(F)F [Compound 98]

% λmax (% of original absorbance remaining) [1]: 97%
% decomposed after irradiation ([1]; exposure to the lamp for 1 h): less than 5%
% abs total (% of original absorbance remaining) [1]: 97%
E (1%, 1 cm) ([2]; Table 1): 1033
λcrit ([2]; Table 1): 357 nm
λmax ([2]; Table 1): 335 nm
ε ([2]; Table 1): 29040
Peak point of absorbance curve (figure legend) [2]: approximately 335 nm
Compound: CC1(C)CCN(c2ccccc2)C=C1C(=O)C(F)(F)F [Compound 106]

Photostability, % remaining after irradiation ([1]; exposure to the lamp for 1 h): 22%
λcrit ([2]; Table 1): 364 nm
Compound: CN(CCCCCCN(C)c1ccc(C(=O)C2=CN(C(C)(C)C)CCC2(C)C)cc1)c1ccc(C(=O)C2=CN(C(C)(C)C)CCC2(C)C)cc1 [Compound 109]

% λmax (% of original absorbance remaining) [1]: 49%
Photostability, % remaining after irradiation ([1]; exposure to the lamp for 1 h): 49%
% abs total (% of original absorbance remaining) [1]: 56%
λmax ([2]; Table 1): ~340 nm
Compound: CCCCC(CC)CN(c1ccc(C(=O)C2=CN(C(C)(C)C)CCC2(C)C)cc1)c1ccc(C(=O)C2=CN(C(C)(C)C)CCC2(C)C)cc1 (centres unmarked) [Compound 136]

% λmax (% of original absorbance remaining) [1]: 60%
% abs total (% of original absorbance remaining) [1]: 60%
Compound: CC(C)CN1C=C(C(=O)C(C)(C)C)C(C)(C)CC1 [Compound 145]

% λmax (% of original absorbance remaining) [1]: 89%
% abs total (% of original absorbance remaining) [1]: 88%
Compound: CC(C)CN1C=C(C(=O)C(F)(F)F)C(C)(C)CC1 [Compound 146]

Solubility in standard commercial sunscreen formulations [3]: readily soluble
Compound: CCCOC(=O)CCC(=O)C1=CN(c2ccc(N3C=C(C(=O)CCC(=O)OCCC)C(C)(C)CC3)cc2)CCC1(C)C [Compound 152]

Solubility in standard commercial sunscreen formulations [3]: readily soluble
Compound: CC(C)=CCCC(C)CC(=O)C1=CN(c2ccc(N3C=C(C(=O)CC(C)CCC=C(C)C)C(C)(C)CC3)cc2)CCC1(C)C (centres unmarked) [Compound 154]

Solubility in standard commercial sunscreen formulations [3]: readily soluble
Compound: CC(C)=CCCC(C)CC(=O)C1=CN(c2ccc(N3C=C(C(=O)CC(C)CCC=C(C)C)C(C)(C)CC3)cc2)CCC1(C)C (centres unmarked) [Compound 155]

Compound: CC1(C)CCN(c2cccc(N3C=C(C(=O)C(F)(F)C(F)(F)C(F)(F)F)C(C)(C)CC3)c2)C=C1C(=O)C(F)(F)C(F)(F)C(F)(F)F [Compound 159]
Photostability (% remains) ([1]; 1 h irradiation): 91%
E (1%, 1 cm) ([2]; Table 1): 875
λcrit ([2]; Table 1): 366 nm
λmax ([2]; Table 1): 348 nm
ε ([2]; Table 1): 60200
E (1%, 1 cm) ([2]; Table 4): 875
ε ([2]; Table 4): 60200

Photostability (% remains) ([1]; after 1.5 h irradiation): 99 (after 1.5 h, others = 1 h) %
E (1%, 1 cm) ([2]; Table 1): 1380
λcrit ([2]; Table 1): 364 nm
λmax ([2]; Table 1): 346 nm
ε ([2]; Table 1): 67344
E (1%, 1 cm) ([2]; Table 4): 1380
ε ([2]; Table 4): 67344
Compound: CC1(C)CCN(c2cccc(N3C=C(C(=O)C(F)(F)F)C(C)(C)CC3)c2)C=C1C(=O)C(F)(F)F [Compound 160]

% λmax (% of original absorbance remaining) [1]: 55%
Compound: Cc1ccc(NC(=O)C2=CN(C(C)(C)CC(C)(C)C)CCC2(C)C)cc1NC(=O)C1=CN(C(C)(C)CC(C)(C)C)CCC1(C)C [Compound 161]

Fate under irradiation [1]: effectively destroyed
Photostability (%) ([1]; Table 6): 5%
E (1%, 1 cm) ([2]; Table 6): 497
λcrit ([2]; Table 6): 361 nm
λmax ([2]; Table 6): 334 nm
ε ([2]; Table 6): 16618
Compound: CC1(C)CCN(C(C)(C)C)C=C1C(=O)C(Cl)(Cl)Cl [Compound 169]

Fate under irradiation [1]: effectively destroyed
Photostability (%) ([1]; Table 6): 13%
E (1%, 1 cm) ([2]; Table 6): 321
λcrit ([2]; Table 6): 361 nm
λmax ([2]; Table 6): 330 nm
ε ([2]; Table 6): 14203
Compound: CC1(C)CCN(C(C)(C)C)C=C1C(=O)C(Br)(Br)Br [Compound 170]

Photostability, % remaining after irradiation ([1]; exposure to the lamp for 1 h): 76%
Compound: CC1(C)CCN(C(C)(C)C)C=C1C(=O)c1ccccc1 [Compound 179]

Photostability (%) ([1]; Table 7, benzoyl derivatives): 90%
Compound: CC1(C)CCN(C(C)(C)C)C=C1C(=O)c1c(F)cccc1F [Compound 184]

Photostability (%) ([1]; Table 5): 5%
E (1%, 1 cm) ([2]; Table 5): 497
λcrit ([2]; Table 5): 361 nm
λmax ([2]; Table 5): 334 nm
ε ([2]; Table 5): 16618
Compound: CC1(C)CCN(C(C)(C)C)C=C1C(=O)C(Cl)(Cl)Cl [drawing 124]

Photostability (%) ([1]; Table 5): 13%
E (1%, 1 cm) ([2]; Table 5): 321
λcrit ([2]; Table 5): 361 nm
λmax ([2]; Table 5): 330 nm
ε ([2]; Table 5): 14203
Compound: CC1(C)CCN(C(C)(C)C)C=C1C(=O)C(Br)(Br)Br [drawing 125]
